Results reported in ChEMBL document CHEMBL6092206, “Discovery and Characterization of BAY-184: A New Potent and Selective Acylsulfonamide-Benzofuran In Vivo-Active KAT6AB Inhibitor” (J Med Chem, 2024).
Calls of active or inactive are those of the source. The calls are words filed in the database; no cut-off is given here.

Tests used:
[1] = Apparent permeability across apical to basolateral side in human Caco-2 cells at 2 uM pH 7.2 measured for 2 hrs by LC-MS/MS analysis; assay type: ADME, cell-based; conditions: caco-2, pH 7.2, 2 h, 2 µM
[2] = Stability of compound in HCL buffer at pH 1 measured for 24 hrs by HPLC analysis; assay type: physicochemical; conditions: pH 1, 24 h
[3] = Stability of compound in PBS buffer at pH 7 measured for 24 hrs by HPLC analysis; assay type: physicochemical; conditions: pH 7, 24 h
[4] = molecular target: T1, Histone acetyltransferase KAT6A (Homo sapiens, UniProt Q92794); assay: Inhibition of KAT6A in human ZR-75-1 cells assessed as reduction in H3K23ac level at 1 uM incubated at 10 to 2880 mins by Western blot analysis; assay type: cell-based; conditions: time 10-2880 min
[5] = molecular target: T1, Histone acetyltransferase KAT6A; assay: Inhibition of KAT6A in human ZR-75-1 cells assessed as reduction in H3K23ac level at 1 uM measured after 144 hrs by Western blot analysis; assay type: cell-based
[6] = Antiproliferative activity against human KPL-1 cells assessed as inhibition of cell growth incubated for 6 days by alamar blue staining based assay relative to control; assay type: functional; conditions: time 6 day
MCF7 = assay: Antiproliferative activity against human MCF7 cells assessed as inhibition of cell growth incubated for 6 days by alamar blue staining based assay relative to control; assay type: functional; conditions: time 6 day
HCC1428 = assay: Antiproliferative activity against human HCC1428 cells assessed as inhibition of cell growth incubated for 6 days by alamar blue staining based assay relative to control; assay type: functional; conditions: time 6 day
MDA-MB-361 = assay: Antiproliferative activity against human MDA-MB-361 cells assessed as inhibition of cell growth incubated for 6 days by alamar blue staining based assay relative to control; assay type: functional; conditions: time 6 day
BT-549 = assay: Antiproliferative activity against human BT-549 cells assessed as inhibition of cell growth incubated for 6 days by alamar blue staining based assay relative to control; assay type: functional; conditions: time 6 day
HCC1806 = assay: Antiproliferative activity against human HCC1806 cells assessed as inhibition of cell growth incubated for 6 days by alamar blue staining based assay relative to control; assay type: functional; conditions: time 6 day
[7] = Metabolic stability in human liver microsome assessed as clearance measured for 2 to 60 mins by LC-MS/MS analysis; assay type: ADME; conditions: microsomes, time 2-60 min
[8] = Metabolic stability in rat liver microsome assessed as clearance measured for 2 to 60 mins by LC-MS/MS analysis; assay type: ADME; conditions: microsomes, time 2-60 min
[9] = Metabolic stability in human hepatocyte assessed as clearance measured for 2 to 90 mins by LC-MS/MS analysis; assay type: ADME, cell-based; conditions: hepatocytes, time 2-90 min
[10] = Metabolic stability in mouse hepatocyte assessed as clearance measured for 2 to 90 mins by LC-MS/MS analysis; assay type: ADME, cell-based; conditions: hepatocytes, time 2-90 min
[11] = Metabolic stability in rat liver microsome assessed as maximum bioavailability of the drug measured for 2 to 60 mins by LC-MS/MS analysis; assay type: ADME; conditions: liver microsomes, time 2-60 min, read-out: Fmax
[12] = Metabolic stability in mouse liver microsome assessed as maximum bioavailability of the drug measured for 2 to 60 mins by LC-MS/MS analysis; assay type: ADME; conditions: liver microsomes, time 2-60 min, read-out: Fmax
[13] = Metabolic stability in dog liver microsome assessed as maximum bioavailability of the drug measured for 2 to 60 mins by LC-MS/MS analysis; assay type: ADME, Canis lupus familiaris; conditions: liver microsomes, time 2-60 min, read-out: Fmax
[14] = Metabolic stability in human hepatocyte assessed as maximum bioavailability of the drug measured for 2 to 90 mins by LC-MS/MS analysis; assay type: ADME; conditions: hepatocytes, time 2-90 min, read-out: Fmax
[15] = Metabolic stability in rat hepatocyte assessed as maximum bioavailability of the drug measured for 2 to 90 mins by LC-MS/MS analysis; assay type: ADME; conditions: hepatocytes, time 2-90 min, read-out: Fmax
[16] = Metabolic stability in dog hepatocyte assessed as maximum bioavailability of the drug measured for 2 to 90 mins by LC-MS/MS analysis; assay type: ADME, Canis lupus familiaris; conditions: hepatocytes, time 2-90 min, read-out: Fmax
[17] = Clearance in male Wistar rat at 0.5 mg/kg, iv or 1 mg/kg, po measured upto 24 hrs by LC-MS/S analysis; assay type: ADME, organism-based; conditions: in vivo
[18] = Volume of distribution at steady state in male Wistar rat at 0.5 mg/kg, iv or 1 mg/kg, po measured upto 24 hrs by LC-MS/S analysis; assay type: ADME, organism-based; conditions: in vivo
[19] = Half life in mouse at 0.5 mg/kg, iv; assay type: ADME, organism-based; conditions: in vivo
[20] = AUC in mouse at 0.5 mg/kg, iv; assay type: ADME, organism-based; conditions: in vivo
[21] = AUC in male Wistar rat at 1 mg/kg, po measured upto 24 hrs by LC-MS/S analysis; assay type: ADME, organism-based; conditions: in vivo
[22] = Oral bioavailability in male Wistar rat at 1 mg/kg measured upto 24 hrs by LC-MS/S analysis; assay type: ADME, organism-based; conditions: in vivo
[23] = Plasma protein binding in mouse assessed as unbound fraction equilibrium dialysis based LC-MS/MS analysis; assay type: ADME, cell-free
[24] = Plasma protein binding in rat assessed as unbound fraction equilibrium dialysis based LC-MS/MS analysis; assay type: ADME, cell-free
[25] = Stability in human plasma assessed as parent compound remaining after 4 hrs; assay type: ADME, cell-free
[26] = Stability in rat plasma assessed as parent compound remaining after 4 hrs; assay type: ADME, cell-free
[27] = Toxicity in female estradiol-primed NMRI mouse assessed as tolerability at 50 to 10 mg/kg, po administered twice daily measured at 2 to 3 days; assay type: organism-based; conditions: in vivo, dose lower 50 mg/kg, time lower 2 day, dose upper 10 mg/kg, time upper 3 day
ZR-75-1 [28] = assay: Antitumor activity against human ZR-75-1 cells xenografted in female estradiol-primed NMRI mouse assessed as reduction in H3K23 acetylation level in tumor at 100 mg/kg, po administered twice daily measured after 1 to 3 hrs by immunohistochemical analysis; assay type: functional, organism-based; conditions: time 1-3 hrs
ZR-75-1 [29] = assay: Antitumor activity against human ZR-75-1 cells xenografted in female estradiol-primed NMRI mouse assessed as reduction in H3K23 acetylation level in tumor at 100 mg/kg, po administered twice daily measured after 24 hrs by immunohistochemical analysis; assay type: functional, organism-based
[30] = Mutagenicity in Salmonella typhimurium TA1535 by Ames test; assay type: toxicity; conditions: salmonella enterica subsp. enterica serovar typhimurium
[31] = Mutagenicity in Salmonella typhimurium TA1537 by Ames test; assay type: toxicity; conditions: salmonella enterica subsp. enterica serovar typhimurium
[32] = Mutagenicity in Salmonella typhimurium TA98 by Ames test; assay type: toxicity; conditions: salmonella enterica subsp. enterica serovar typhimurium
[33] = Mutagenicity in Escherichia coli WP2 uvrA by Ames test; assay type: toxicity
[34] = Mutagenicity in Salmonella typhimurium TA98 in presence of S9 fraction by Ames test; assay type: toxicity, subcellular; conditions: salmonella enterica subsp. enterica serovar typhimurium
[35] = molecular target: Histone acetyltransferase KAT5 (Homo sapiens, UniProt Q92993); assay: Inhibition of full length N-terminal GST-tagged human recombinant KAT5 expressed in Sf9 insect cells using H4-derived peptide as substrate incubated for 30 mins in presence of AcCoA by TR-FRET assay
[36] = molecular target: Histone acetyltransferase KAT7 (Homo sapiens, UniProt O95251); assay: Inhibition of full length N-terminal GST-tagged human recombinant KAT7 expressed in Sf9 insect cells using H4-derived peptide as substrate incubated for 30 mins in presence of AcCoA by TR-FRET assay
[37] = molecular target: Histone acetyltransferase p300 (Homo sapiens, UniProt Q09472); assay: Inhibition of GST-tagged human recombinant p300 (965 to 1810 residues) expressed in Sf9 insect cells using H3-derived peptide as substrate incubated for 30 mins in presence of AcCoA by TR-FRET assay
Chain of Histone acetyltransferase p300 (Q09472 whole entry, the tested form may be a part): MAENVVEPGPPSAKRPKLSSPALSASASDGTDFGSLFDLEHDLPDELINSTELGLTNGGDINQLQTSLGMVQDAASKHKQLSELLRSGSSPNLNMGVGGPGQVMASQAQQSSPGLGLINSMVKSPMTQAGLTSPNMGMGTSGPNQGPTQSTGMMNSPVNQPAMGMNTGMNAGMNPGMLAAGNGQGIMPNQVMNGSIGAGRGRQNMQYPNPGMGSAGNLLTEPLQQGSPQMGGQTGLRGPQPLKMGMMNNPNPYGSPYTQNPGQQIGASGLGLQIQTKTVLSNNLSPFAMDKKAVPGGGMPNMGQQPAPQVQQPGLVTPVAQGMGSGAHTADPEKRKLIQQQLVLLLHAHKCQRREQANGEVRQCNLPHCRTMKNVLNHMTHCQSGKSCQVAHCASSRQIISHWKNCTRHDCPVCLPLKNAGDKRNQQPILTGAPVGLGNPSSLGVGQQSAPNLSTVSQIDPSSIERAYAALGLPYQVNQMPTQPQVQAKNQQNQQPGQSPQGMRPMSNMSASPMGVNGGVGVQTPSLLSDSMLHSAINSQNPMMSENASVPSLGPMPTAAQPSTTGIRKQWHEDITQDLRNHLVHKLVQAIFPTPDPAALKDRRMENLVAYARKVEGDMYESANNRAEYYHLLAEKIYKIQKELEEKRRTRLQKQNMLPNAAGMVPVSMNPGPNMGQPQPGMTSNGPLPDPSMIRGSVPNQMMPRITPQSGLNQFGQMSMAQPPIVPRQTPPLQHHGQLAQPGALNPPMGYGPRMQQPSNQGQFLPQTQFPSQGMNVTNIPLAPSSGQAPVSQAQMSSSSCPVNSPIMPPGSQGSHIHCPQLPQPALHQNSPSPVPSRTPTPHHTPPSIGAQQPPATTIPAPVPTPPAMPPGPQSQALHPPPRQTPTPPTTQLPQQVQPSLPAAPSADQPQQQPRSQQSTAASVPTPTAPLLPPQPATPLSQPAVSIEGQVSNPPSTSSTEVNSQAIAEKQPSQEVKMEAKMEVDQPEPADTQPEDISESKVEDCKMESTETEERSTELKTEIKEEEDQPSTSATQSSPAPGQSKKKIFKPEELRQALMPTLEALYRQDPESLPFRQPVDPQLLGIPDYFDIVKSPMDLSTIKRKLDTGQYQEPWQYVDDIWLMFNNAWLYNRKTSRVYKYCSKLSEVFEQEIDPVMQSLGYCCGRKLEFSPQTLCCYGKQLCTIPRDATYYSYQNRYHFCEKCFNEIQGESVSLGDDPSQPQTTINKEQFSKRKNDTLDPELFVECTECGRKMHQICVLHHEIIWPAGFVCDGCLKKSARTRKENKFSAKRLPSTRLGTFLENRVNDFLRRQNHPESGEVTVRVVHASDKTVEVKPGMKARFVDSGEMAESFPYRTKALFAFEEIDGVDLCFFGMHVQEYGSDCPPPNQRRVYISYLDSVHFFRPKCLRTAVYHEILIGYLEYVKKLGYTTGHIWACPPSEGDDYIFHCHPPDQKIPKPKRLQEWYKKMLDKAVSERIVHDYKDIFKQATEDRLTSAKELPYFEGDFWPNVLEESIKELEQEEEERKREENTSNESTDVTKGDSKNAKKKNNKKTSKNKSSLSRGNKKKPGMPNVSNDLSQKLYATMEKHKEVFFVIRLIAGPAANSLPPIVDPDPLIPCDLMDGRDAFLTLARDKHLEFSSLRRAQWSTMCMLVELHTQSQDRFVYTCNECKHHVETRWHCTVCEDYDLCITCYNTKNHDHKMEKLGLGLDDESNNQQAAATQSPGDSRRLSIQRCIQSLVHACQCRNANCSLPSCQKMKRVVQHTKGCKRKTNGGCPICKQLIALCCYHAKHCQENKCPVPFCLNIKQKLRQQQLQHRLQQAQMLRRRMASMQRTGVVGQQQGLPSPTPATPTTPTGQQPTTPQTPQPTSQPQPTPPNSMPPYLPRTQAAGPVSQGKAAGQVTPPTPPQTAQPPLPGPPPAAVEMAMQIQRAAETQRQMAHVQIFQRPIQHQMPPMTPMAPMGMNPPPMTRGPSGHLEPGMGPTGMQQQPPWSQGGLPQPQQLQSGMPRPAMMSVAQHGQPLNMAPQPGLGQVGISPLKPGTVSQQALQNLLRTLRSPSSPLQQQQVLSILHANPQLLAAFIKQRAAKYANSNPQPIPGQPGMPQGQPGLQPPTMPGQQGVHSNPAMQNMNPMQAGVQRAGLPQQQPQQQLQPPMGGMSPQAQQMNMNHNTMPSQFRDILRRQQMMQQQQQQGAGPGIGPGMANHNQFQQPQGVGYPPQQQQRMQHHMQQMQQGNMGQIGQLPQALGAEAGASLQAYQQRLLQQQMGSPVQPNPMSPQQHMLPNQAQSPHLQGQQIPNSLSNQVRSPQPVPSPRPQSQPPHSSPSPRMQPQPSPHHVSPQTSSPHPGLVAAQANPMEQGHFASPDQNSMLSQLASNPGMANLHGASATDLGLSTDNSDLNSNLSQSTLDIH

T1 sequence (Q92794 whole entry, looked up): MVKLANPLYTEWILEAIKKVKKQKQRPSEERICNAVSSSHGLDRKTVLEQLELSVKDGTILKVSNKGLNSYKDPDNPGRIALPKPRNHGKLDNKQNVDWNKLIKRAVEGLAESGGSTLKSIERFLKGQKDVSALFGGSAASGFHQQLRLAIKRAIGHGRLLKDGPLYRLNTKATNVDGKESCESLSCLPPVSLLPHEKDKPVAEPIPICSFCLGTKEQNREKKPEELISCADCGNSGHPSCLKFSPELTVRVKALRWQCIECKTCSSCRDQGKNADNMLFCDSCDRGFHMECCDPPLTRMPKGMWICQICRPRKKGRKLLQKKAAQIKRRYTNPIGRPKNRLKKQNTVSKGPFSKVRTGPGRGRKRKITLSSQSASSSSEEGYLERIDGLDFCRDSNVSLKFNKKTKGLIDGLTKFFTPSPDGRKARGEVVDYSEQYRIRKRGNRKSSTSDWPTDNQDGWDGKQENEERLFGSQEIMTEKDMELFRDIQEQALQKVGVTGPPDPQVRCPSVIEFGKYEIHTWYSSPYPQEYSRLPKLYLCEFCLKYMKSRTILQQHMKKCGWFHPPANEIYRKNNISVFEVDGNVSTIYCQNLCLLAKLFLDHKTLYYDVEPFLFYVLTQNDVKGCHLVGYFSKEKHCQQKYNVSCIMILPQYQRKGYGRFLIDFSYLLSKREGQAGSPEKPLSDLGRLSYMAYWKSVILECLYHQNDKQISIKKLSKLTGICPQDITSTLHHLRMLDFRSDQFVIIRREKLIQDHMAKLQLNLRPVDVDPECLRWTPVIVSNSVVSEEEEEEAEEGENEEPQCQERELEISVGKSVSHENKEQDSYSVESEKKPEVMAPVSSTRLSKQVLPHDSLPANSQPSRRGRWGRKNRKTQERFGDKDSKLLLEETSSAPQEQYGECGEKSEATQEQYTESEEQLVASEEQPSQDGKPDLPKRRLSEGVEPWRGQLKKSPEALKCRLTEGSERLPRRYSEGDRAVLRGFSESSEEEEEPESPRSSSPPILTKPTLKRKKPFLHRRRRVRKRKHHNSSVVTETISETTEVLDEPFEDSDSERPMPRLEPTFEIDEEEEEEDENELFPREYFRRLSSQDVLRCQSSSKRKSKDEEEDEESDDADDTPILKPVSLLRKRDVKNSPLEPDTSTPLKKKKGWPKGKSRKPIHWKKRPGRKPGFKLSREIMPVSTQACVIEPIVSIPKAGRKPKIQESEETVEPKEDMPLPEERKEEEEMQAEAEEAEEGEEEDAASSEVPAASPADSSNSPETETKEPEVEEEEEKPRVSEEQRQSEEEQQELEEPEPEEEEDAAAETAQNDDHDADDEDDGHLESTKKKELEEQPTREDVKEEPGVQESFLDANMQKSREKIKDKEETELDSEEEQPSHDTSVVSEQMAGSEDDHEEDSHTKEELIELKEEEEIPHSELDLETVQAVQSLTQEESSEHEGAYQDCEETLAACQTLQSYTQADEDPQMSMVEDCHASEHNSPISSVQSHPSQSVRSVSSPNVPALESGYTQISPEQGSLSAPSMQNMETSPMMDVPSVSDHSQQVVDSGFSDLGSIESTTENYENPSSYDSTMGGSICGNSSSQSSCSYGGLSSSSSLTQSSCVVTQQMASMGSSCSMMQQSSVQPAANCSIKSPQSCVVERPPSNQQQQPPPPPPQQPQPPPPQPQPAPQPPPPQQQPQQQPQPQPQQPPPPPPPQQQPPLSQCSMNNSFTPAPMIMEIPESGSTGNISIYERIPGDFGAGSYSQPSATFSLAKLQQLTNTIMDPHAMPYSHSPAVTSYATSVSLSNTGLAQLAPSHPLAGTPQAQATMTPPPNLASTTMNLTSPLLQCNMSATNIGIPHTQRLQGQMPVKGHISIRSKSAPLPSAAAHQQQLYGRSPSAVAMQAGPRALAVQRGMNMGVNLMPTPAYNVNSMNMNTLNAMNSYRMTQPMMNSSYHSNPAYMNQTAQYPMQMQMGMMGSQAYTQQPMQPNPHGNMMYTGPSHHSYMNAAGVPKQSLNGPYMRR
Chain of Histone acetyltransferase KAT5 (Q92993 whole entry): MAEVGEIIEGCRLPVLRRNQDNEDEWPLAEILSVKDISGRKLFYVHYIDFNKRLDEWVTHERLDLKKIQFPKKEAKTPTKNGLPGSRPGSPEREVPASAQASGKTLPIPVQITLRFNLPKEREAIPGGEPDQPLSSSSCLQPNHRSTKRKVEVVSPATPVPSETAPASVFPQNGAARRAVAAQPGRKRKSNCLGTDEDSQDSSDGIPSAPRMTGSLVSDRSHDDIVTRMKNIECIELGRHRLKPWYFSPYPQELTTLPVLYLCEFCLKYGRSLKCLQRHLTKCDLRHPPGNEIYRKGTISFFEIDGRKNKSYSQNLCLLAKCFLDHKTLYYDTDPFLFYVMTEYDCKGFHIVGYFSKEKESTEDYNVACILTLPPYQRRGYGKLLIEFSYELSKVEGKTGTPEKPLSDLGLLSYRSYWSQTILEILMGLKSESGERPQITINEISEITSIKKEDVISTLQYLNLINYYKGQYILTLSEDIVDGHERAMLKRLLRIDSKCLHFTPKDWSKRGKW

Papp [1]: 14.6 ×10⁻⁶ cm/s | Stability [2]: Stable | Stability [3]: Stable | inhibition [4]: Active | inhibition [5]: inactive | CLH [7]: 12.8 mL/min/kg | CLH [8]: 50 mL/min/kg | CLH [9]: 16.5 mL/min/kg | CLH [10]: 60 mL/min/kg | Fh [11]: 28% | Fh [12]: 29% | Fh [13]: 80% | Fh [14]: 25% | Fh [15]: 42% | Fh [16]: 53% | clearance [17]: 5.67 mL/min/kg | Vdss [18]: 0.13 L/kg | half-life [19]: 1.3 h | AUC [20]: 2.5 kg·h/L | AUC [21]: 3.3 kg·h/L | bioavailability [22]: 60% | Fu [23]: 0.31% | Fu [24]: 0.048% | Stability [25]: Stable | Stability [26]: Stable | IC50 [35]: 14.3 µM | IC50 [36]: 1.07 µM | IC50 [37]: > 10 µM
Compound: CN(C)c1ccc2cc(C(=O)NS(=O)(=O)c3ccccc3-c3ccccc3)oc2c1
inhibition (INH) [6]: 30% | inhibition (INH) (MCF7): 66% | inhibition (INH) (HCC1428): 51% | inhibition (INH) (MDA-MB-361): 22% | inhibition (INH) (BT-549): 0% | inhibition (INH) (HCC1806): 0% | Activity [27]: Non-toxic | Activity (ZR-75-1 [28]): Active | Activity (ZR-75-1 [29]): Active | Activity [30]: Non-toxic | Activity [31]: Non-toxic | Activity [32]: Non-toxic | Activity [33]: Non-toxic | Activity [34]: Non-toxic
